Results taken from ChEMBL document CHEMBL5576041, “13-oxyingenol dodecanoate derivatives induce mitophagy and ferroptosis through targeting TMBIM6 as potential anti-NSCLC agents” (Eur J Med Chem, 2024).
Activity calls are given as the source filed them. The calls are words filed in the database; no cut-off is given here.

Tests used:
[1] = test system: HepG2; assay: Antiproliferative activity against human HepG2 cells assessed as inhibition of cell growth incubated for 24 to 72 hrs by CCK8 assay; type: functional, cell-based
[2] = test system: A549; assay: Antiproliferative activity against human A549 cells assessed as inhibition of cell growth incubated for 24 to 72 hrs by CCK8 assay; type: functional, cell-based
[3] = test system: NCI-H460; assay: Antiproliferative activity against human NCI-H460 cells assessed as inhibition of cell growth incubated for 24 to 72 hrs by CCK8 assay; type: functional, cell-based
[4] = test system: A549; assay: Increase in Ca2+ level in human A549 cell cytoplasm at 5 to 20 uM incubated for 8 hrs by confocal photographic analysis; type: functional, cell-based; settings: dose 5-20 µM
[5] = test system: A549; assay: Induction of ferroptosis in human A549 cells assessed as reduction in GSH content incubated for 2 to 12 hrs; type: functional, cell-based; settings: time 2-12 hrs
[6] = Selectivity index, ratio of IC50 for cytotoxicity against human BEAS-2B cells to IC50 for antiproliferative activity against human A549 cells; type: toxicity, cell-based; settings: read-out: Ratio IC50
[7] = test system: A549; assay: Induction of TMBIM6-VDAC1 protein-protein interaction in human A549 cells at 20 uM by immunoprecipitation analysis; type: cell-based; settings: filed as activator
[8] = test system: A549; assay: Induction of ferroptosis in human A549 cells assessed as increase in […] accumulation; type: functional, cell-based
[9] = target: T1, Cystine/glutamate transporter (Homo sapiens) (UniProt Q9UPY5); assay: Inhibition of SLC7A11 in human […] cells at 10 to 20 uM by Western blot analysis; type: cell-based; settings: A549, dose 10-20 µM
T1 sequence (whole entry): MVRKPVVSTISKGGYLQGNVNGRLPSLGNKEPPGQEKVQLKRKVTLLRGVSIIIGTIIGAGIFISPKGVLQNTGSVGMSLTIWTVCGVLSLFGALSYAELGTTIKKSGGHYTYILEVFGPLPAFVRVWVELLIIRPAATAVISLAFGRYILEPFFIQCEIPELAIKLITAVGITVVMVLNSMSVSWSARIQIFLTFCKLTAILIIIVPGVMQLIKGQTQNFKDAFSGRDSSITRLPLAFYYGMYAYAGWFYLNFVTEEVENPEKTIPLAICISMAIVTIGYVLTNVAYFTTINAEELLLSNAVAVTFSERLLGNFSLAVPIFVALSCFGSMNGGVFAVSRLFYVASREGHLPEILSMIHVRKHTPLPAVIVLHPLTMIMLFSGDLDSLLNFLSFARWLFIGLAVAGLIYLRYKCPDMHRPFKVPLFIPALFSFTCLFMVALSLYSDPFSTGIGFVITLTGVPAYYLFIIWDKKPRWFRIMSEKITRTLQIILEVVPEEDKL

[10] = target: Bax inhibitor 1 (Homo sapiens) (UniProt P55061); assay: Thermal stabilization of TMBIM6 in human A549 cells at 46 to 60 degreeC at 100 uM incubated for 2 hrs by CETSA based Western blot analysis; type: cell-based
Sequence of Bax inhibitor 1 (Homo sapiens) (P55061 whole entry): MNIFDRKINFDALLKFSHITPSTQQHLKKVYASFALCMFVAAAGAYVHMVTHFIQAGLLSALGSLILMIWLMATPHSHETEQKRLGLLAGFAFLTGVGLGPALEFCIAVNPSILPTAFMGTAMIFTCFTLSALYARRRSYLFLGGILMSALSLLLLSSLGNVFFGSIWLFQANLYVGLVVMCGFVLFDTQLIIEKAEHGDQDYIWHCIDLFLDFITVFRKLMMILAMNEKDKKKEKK

[11] = test system: A549; assay: Induction of ferroptosis in human A549 cells assessed as increase in malondialdehyde content; type: functional, cell-based
[12] = test system: Cell membrane; assay: Induction of mitochondrial membrane potential loss in human A549 cells at 10 to 20 uM incubated for 6 hrs by JC-1 staining based flow cytometric analysis; type: cell membranes; settings: dose 10-20 µM
[13] = test system: Cell membrane; assay: Induction of mitochondrial membrane depolarization in human A549 cells assessed as increases in mitochondrial Ca2+ concentration incubated for 8 hrs by Rhod-2 AM probe based flow cytometric analysis; type: cell membranes
[14] = target: Non-selective voltage-gated ion channel VDAC1 (Homo sapiens) (UniProt P21796); assay: Activation of VDAC1 channel in human A549 cells assessed as increase in mitochondrial Ca2+ endocytosis by staining based analysis; type: cell-based; settings: filed as opener
Sequence of Non-selective voltage-gated ion channel VDAC1 (Homo sapiens) (P21796 whole entry): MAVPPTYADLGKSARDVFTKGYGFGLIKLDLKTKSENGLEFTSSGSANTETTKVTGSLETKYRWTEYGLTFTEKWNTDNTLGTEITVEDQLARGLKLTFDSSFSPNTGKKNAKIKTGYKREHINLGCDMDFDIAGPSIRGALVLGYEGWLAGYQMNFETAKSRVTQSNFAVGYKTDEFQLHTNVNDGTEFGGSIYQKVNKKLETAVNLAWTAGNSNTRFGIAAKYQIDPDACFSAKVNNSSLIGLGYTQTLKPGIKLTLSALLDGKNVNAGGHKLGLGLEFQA

[15] = test system: A549; assay: Induction of autophagy in human A549 cells assessed as effect on LC3II protein expression at 10 to 20 uM incubated for 24 hrs by Western blot analysis; type: functional, cell-based; settings: dose 10-20 µM
[16] = test system: Cell membrane; assay: Induction of mitochondrial membrane depolarization in human A549 cells assessed as increases in mitochondrial Ca2+ concentration by Rhod-2 AM probe based flow cytometric analysis; type: cell membranes
[17] = target: Bax inhibitor 1 (Homo sapiens) (UniProt P55061); assay: Thermal stabilization of TMBIM6 in human A549 cells at 54 to 60 degreeC at 100 uM incubated for 2 hrs by CETSA based Western blot analysis; type: cell-based
[18] = test system: A549; assay: Induction of autophagy in human A549 cells assessed as effect on PINK1 protein expression at 10 to 20 uM incubated for 24 hrs by Western blot analysis; type: functional, cell-based; settings: dose 10-20 µM
[19] = test system: A549; assay: Activation of Nrf2-Keap1-HO-1 signaling pathway in human A549 cells assessed as increase in oxidative stress by measuring lipid ROS level at 10 to 20 uM by Western blot analysis; type: cell-based; settings: filed as activator, dose 10-20 µM
[20] = test system: A549; assay: Downregulation of TMBIM6 protein expression in human A549 cells at 10 uM by Western blot analysis; type: functional, cell-based

Structure (SMILES) | IC50 [1] [µM] | IC50 [2] [µM] | IC50 [3] [µM] | further results
CCCCCCCCCCCC(=O)O[C@@]12C[C@@H](C)[C@]34C=C(C)[C@H](OC(=O)NCCCC)[C@@]3(O)[C@H](O)C(CO)=C[C@H](C4=O)[C@@H]1C2(C)C | 10.3 | 25.6 | 9.7 | 
CCCCCCCCCCCC(=O)O[C@@]12C[C@@H](C)[C@]34C=C(C)[C@H](OC)[C@@]3(O)[C@H](O)C(CO)=C[C@H](C4=O)[C@@H]1C2(C)C | 13.6 | 16.6 |  | 
CCCCCCCCCCCC(=O)O[C@@]12C[C@@H](C)[C@]34C=C(C)[C@H](OC(=O)c5ccc([N+](=O)[O-])cc5)[C@@]3(O)[C@H](O)C(COC(=O)c3ccc([N+](=O)[O-])cc3)=C[C@H](C4=O)[C@@H]1C2(C)C | > 50 | 6.1 | 1 | Activity [4]: Active; Activity [5]: Active; selectivity ratio [6]: 8.2; Activity [7]: Active; Activity [8]: Active; inhibition [9]: Active; Activity [10]: Active; Activity [11]: Active; Activity [12]: Active; Activity [13]: Active; Activity [14]: Active; Activity [15]: Active; Activity [16]: Active; Activity [17]: Active; Activity [18]: Active; Activity [19]: Active; Activity [20]: Active
CCCCCCCCCCCC(=O)O[C@@]12C[C@@H](C)[C@]34C=C(C)[C@H](OC(=O)c5ccc(Br)cc5)[C@@]3(O)[C@H](O)C(COC(=O)c3ccc(Br)cc3)=C[C@H](C4=O)[C@@H]1C2(C)C |  | > 50 | > 50 | 
CCCCCCCCCCCC(=O)O[C@@]12C[C@@H](C)[C@]34C=C(C)[C@H](OCc5ccccc5)[C@@]3(O)[C@H](O)C(CO)=C[C@H](C4=O)[C@@H]1C2(C)C | 8.8 | 16.2 | 23.5 | 
CCCCCCCCCCCC(=O)O[C@@]12C[C@@H](C)[C@]34C=C(C)[C@H](O)[C@@]3(O)[C@H](O)C(COC(=O)c3ccc(Br)cc3)=C[C@H](C4=O)[C@@H]1C2(C)C |  | > 50 | > 50 | 
CCCCCCCCCCCC(=O)O[C@@]12C[C@@H](C)[C@]34C=C(C)[C@H](OC(=O)c5ccccc5)[C@@]3(O)[C@H](O)C(CO)=C[C@H](C4=O)[C@@H]1C2(C)C | 14.5 | 23.8 |  | 
CCCCCCCCCCCC(=O)O[C@@]12C[C@@H](C)[C@]34C=C(C)[C@H](OCCC)[C@@]3(O)[C@H](O)C(CO)=C[C@H](C4=O)[C@@H]1C2(C)C | 12.7 | 30 |  | 
CCCCCCCCCCCC(=O)O[C@@]12C[C@@H](C)[C@]34C=C(C)[C@H](OC(=O)NCCCCCC)[C@@]3(O)[C@H](O)C(CO)=C[C@H](C4=O)[C@@H]1C2(C)C |  | 31 | 29 | 
CCCCCCCCCCCC(=O)O[C@@]12C[C@@H](C)[C@]34C=C(C)[C@H](OC(=O)C5CCCCC5)[C@@]3(O)[C@H](O)C(CO)=C[C@H](C4=O)[C@@H]1C2(C)C | 13.4 | 17.1 |  | 
CCCCCCCCCCCC(=O)O[C@@]12C[C@@H](C)[C@]34C=C(C)[C@H](OC(=O)c5ccc([N+](=O)[O-])cc5)[C@@]3(O)[C@H](O)C(CO)=C[C@H](C4=O)[C@@H]1C2(C)C | 12 | 14.2 |  | 
CCCCCCCCCCCC(=O)O[C@@]12C[C@@H](C)[C@]34C=C(C)[C@H](O)[C@@]3(O)[C@H](O)C(COC(=O)c3ccc([N+](=O)[O-])cc3)=C[C@H](C4=O)[C@@H]1C2(C)C | 15.5 | 12.8 | 2.6 | 
CCCCCCCCCCCC(=O)O[C@@]12C[C@@H](C)[C@]34C=C(C)[C@H](OC(=O)c5ccc6ccccc6c5)[C@@]3(O)[C@H](O)C(CO)=C[C@H](C4=O)[C@@H]1C2(C)C | > 50 | > 50 |  | 
CCCCCCCCCCCC(=O)O[C@@]12C[C@@H](C)[C@]34C=C(C)[C@H](OC(=O)c5ccc(F)cc5)[C@@]3(O)[C@H](O)C(COC(=O)c3ccc(F)cc3)=C[C@H](C4=O)[C@@H]1C2(C)C | > 50 | 12.5 | 5.4 | 
CCCCCCCCCCCC(=O)O[C@@]12C[C@@H](C)[C@]34C=C(C)[C@H](OC(=O)c5ccc(Br)cc5)[C@@]3(O)[C@H](O)C(CO)=C[C@H](C4=O)[C@@H]1C2(C)C | > 50 | 10 | 7.9 | 
CCCCCCCCCCCC(=O)O[C@@]12C[C@@H](C)[C@]34C=C(C)[C@H](OC(=O)NCc5ccc(F)cc5)[C@@]3(O)[C@H](O)C(CO)=C[C@H](C4=O)[C@@H]1C2(C)C | 10.9 | 9.4 | 11.8 | 
CCCCCCCCCCCC(=O)O[C@@]12C[C@@H](C)[C@]34C=C(C)[C@H](OC(=O)c5ccc(-c6ccccc6)cc5)[C@@]3(O)[C@H](O)C(CO)=C[C@H](C4=O)[C@@H]1C2(C)C | > 50 | > 50 |  | 
CCCCCCCCCCCC(=O)O[C@@]12C[C@@H](C)[C@]34C=C(C)[C@H](OC(=O)NC(C)C)[C@@]3(O)[C@H](O)C(CO)=C[C@H](C4=O)[C@@H]1C2(C)C | 13.5 | 18.1 |  | 
CCCCCCCCCCCC(=O)O[C@@]12C[C@@H](C)[C@]34C=C(C)[C@H](OC(=O)NCc5ccc(C)cc5)[C@@]3(O)[C@H](O)C(CO)=C[C@H](C4=O)[C@@H]1C2(C)C | 27 | > 50 |  | 
CCCCCCCCCCCC(=O)O[C@@]12C[C@@H](C)[C@]34C=C(C)[C@H](OCC)[C@@]3(O)[C@H](O)C(CO)=C[C@H](C4=O)[C@@H]1C2(C)C | 13.6 | 27.2 | 45.8 | 
CCCCCCCCCCCC(=O)O[C@@]12C[C@@H](C)[C@]34C=C(C)[C@H](OC(=O)NCCCCC)[C@@]3(O)[C@H](O)C(CO)=C[C@H](C4=O)[C@@H]1C2(C)C | 1.7 | 32.8 | 5.4 | 
CCCCCCCCCCCC(=O)O[C@@]12C[C@@H](C)[C@]34C=C(C)[C@H](O)[C@@]3(O)[C@H](O)C(COC(=O)c3ccc(F)cc3)=C[C@H](C4=O)[C@@H]1C2(C)C | 7.6 | 21.2 | 4.5 | 
CCCCCCCCCCCC(=O)O[C@@]12C[C@@H](C)[C@]34C=C(C)[C@H](OC(=O)NC5CCCC5)[C@@]3(O)[C@H](O)C(CO)=C[C@H](C4=O)[C@@H]1C2(C)C | 8.7 | 11.9 | 17.9 | 
C/C=C(/C)C(=O)O[C@H]1C(C)=C[C@]23C(=O)[C@@H](C=C(CO)[C@@H](O)[C@]12O)[C@H]1[C@@H](C[C@H]3C)C1(C)C [INGENOL MEBUTATE] | > 50 | > 50 | > 50 | 
CCCCCCCCCCCC(=O)O[C@@]12C[C@@H](C)[C@]34C=C(C)[C@H](OC(=O)N5CCCC5)[C@@]3(O)[C@H](O)C(CO)=C[C@H](C4=O)[C@@H]1C2(C)C | 21.1 | 27.9 |  | 
CCCCCCCCCCCC(=O)O[C@@]12C[C@@H](C)[C@]34C=C(C)[C@H](OC(=O)NCCCCCCCC)[C@@]3(O)[C@H](O)C(CO)=C[C@H](C4=O)[C@@H]1C2(C)C |  | 19.1 | 14.3 | 
CCCCCCCCCCCC(=O)O[C@@]12C[C@@H](C)[C@]34C=C(C)[C@H](OC(=O)NC5CC5)[C@@]3(O)[C@H](O)C(CO)=C[C@H](C4=O)[C@@H]1C2(C)C | 12.7 | 13.7 |  | 
CCCCCCCCCCCC(=O)O[C@@]12C[C@@H](C)[C@]34C=C(C)[C@H](OC(=O)c5ccc(OC)cc5)[C@@]3(O)[C@H](O)C(CO)=C[C@H](C4=O)[C@@H]1C2(C)C | 14.3 | 23.6 |  | 
